# From patent publication US20050208549A1, “Testing endosymbiont cellular organelles and compounds identifiable therewith” (priority 2000, published 2005)
# Key:
# [1] = tested on: peripheral blood mononuclear cells (PBMCs); assay: NASBA ratio of mitochondrial RNA to chromosome-encoded RNA in cultured PBMCs; assay type: cell-based, human (healthy blood donor); conditions: culture period of five days, 6 μM and 60 μM
# Protocol: (§1) In Table 1, the primers and probes used in the examples are summarized. Standard NASBA nucleic acid amplification reactions were performed in a 20 μl reaction volume and contained: 40 mM Tris-pH 8.5, 70 mM KCl, 12 mM MgCl2, 5 mM dithiothreitol, 1 mM dNTPs (each), 2 mM rNTPs (each), 0.2 μM primer (each), 0.05 μM molecular beacon, 375 mM sorbitol, 0.105 μg/μl bovine serum albumin, 6.4 units AMV RT, 32 units T7 RNA polymerase, 0.08 units RNAse H and input nucleic acid. The complete mixture, except the enzymes, sorbitol and/or bovine serum albumin was, prior to adding the enzyme mixture, heated to 65° C. for two minutes in order to denature any secondary structure in the RNA and to allow the primers to anneal. After cooling the mixture to 41° C., the enzymes were added. The amplification took place at 41° C. for 90 minutes in a fluorimeter (CytoFluor 2000) and the fluorescent signal was measured every minute (using the filter set 530/25 nm and 485/30 nm). For amplification of DNA target sequences, the 65° C. denaturation step was replaced with a 95° C. denaturation step for two to five minutes.
# To achieve quantification, a dilution series of target sequences for a particular primer set was amplified and the time points at which the reactions became positive (the time to positivity, TTP) were plotted against the input amounts of nucleic acid. This way a calibration curve was created that could be used to read TTP values of reactions with unknown amounts of input and deduce the input amount.
# Cells (fibroblasts and PBMCs) were cultured under standard conditions in standard media known to persons skilled in the art with the addition of drugs or putative toxic or stimulating compounds as defined in the examples. […] A small aliquot of the isolated nucleic acid was analyzed on an agarose gel and the remainder stored at −80° C. until further analysis. […]
# [2] = Peripheral atrophy, Lipodystrophy; d4T > others; cited from earlier work
# [3] = tested on: Fibroblast cells; assay: NASBA ratio of mitochondrial DNA to chromosomal DNA in cultured fibroblast cells; assay type: cell-based; conditions: culture period of four weeks, antiviral drugs at 3 μM and 30 μM
# Protocol: as §1, with “For amplification of DNA target sequences, the 65° C. denaturation step was replaced with a 95° C. denaturation step for two to five minutes.” left out
# (§2) To achieve quantification, a dilution series of target sequences for a particular primer set was amplified and the time points at which the reactions became positive (the time to positivity, TTP) were plotted against the input amounts of nucleic acid. This way a calibration curve was created that could be used to read TTP values of reactions with unknown amounts of input and deduce the input amount. […]
# [4] = tested on: Fibroblast cells; assay: NASBA ratio of mitochondrial RNA to chromosome-encoded RNA in cultured fibroblast cells; assay type: cell-based; conditions: culture period of four weeks, antiviral drugs at 3 μM and 30 μM
# Protocol: as §1, with “For amplification of DNA target sequences, the 65° C. denaturation step was replaced with a 95° C. denaturation step for two to five minutes.” left out
# as §2
# [5] = tested on: Fibroblast cells; assay: NASBA ratio of mitochondrial RNA to chromosomal DNA in cultured fibroblast cells; assay type: cell-based; conditions: culture period of four weeks, antiviral drugs at 3 μM and 30 μM
# Protocol: as §1, with “For amplification of DNA target sequences, the 65° C. denaturation step was replaced with a 95° C. denaturation step for two to five minutes.” left out
# as §2
# [6] = tested on: Fibroblast cells; assay: NASBA ratio of mitochondrial RNA to mitochondrial DNA in cultured fibroblast cells; assay type: cell-based; conditions: culture period of four weeks, antiviral drugs at 3 μM and 30 μM
# Protocol: as §1, with “For amplification of DNA target sequences, the 65° C. denaturation step was replaced with a 95° C. denaturation step for two to five minutes.” left out
# as §2
# [7] = tested on: Fibroblast cells; assay: NASBA ratio of chromosome-encoded RNA to chromosomal DNA in cultured fibroblast cells; assay type: cell-based; conditions: culture period of four weeks, antiviral drugs at 3 μM and 30 μM
# Protocol: as §1, with “For amplification of DNA target sequences, the 65° C. denaturation step was replaced with a 95° C. denaturation step for two to five minutes.” left out
# as §2
Compound,change in ratio of mitochondrial RNA to chromosome-encoded RNA [1],"Rate (%) of mitochondrial toxicity, affected organ Fat [2] [%]",change in mitochondrial DNA to chromosomal DNA ratio [3],change in mitochondrial RNA to chromosome-encoded RNA ratio [4],change in mitochondrial RNA to chromosomal DNA ratio [5],change in mitochondrial RNA to mitochondrial DNA ratio [6],change in ratio of chromosome-encoded RNA and chromosomal DNA [7]
Cc1cn([C@H]2C=C[C@@H](CO)O2)c(=O)[nH]c1=O [D4T],no measurable change,50,–,–,–,–,–
CC[n+]1c(-c2ccccc2)c2cc(N)ccc2c2ccc(N)cc21 [ethidium bromide],–,–,decline in mitochondrial DNA content,decline in mitochondrial RNA content,decline in mitochondrial RNA content,decline in mitochondrial RNA and DNA content,no measurable change
